# According to ChEMBL document CHEMBL4813957, “Antitubercular properties of thiazolidin-4-ones - A review” (Eur J Med Chem, 2021):
# Key:
# [1] = tested on: Mycobacterium tuberculosis; assay: Antimycobacterial activity against Mycobacterium bovis BCG; format: functional, organism-based; settings: variant bovis BCG
# [2] = tested on: Mycobacterium tuberculosis; assay: Antimycobacterial activity against Mycobacterium bovis BCG assessed as inhibition of bacteria at 30 ug/ml by nitrate reductase assay; format: functional; settings: variant bovis BCG
# [3] = tested on: Mycobacterium tuberculosis; assay: Antimycobacterial activity Mycobacterium bovis BCG measured up to 2 weeks; format: functional; settings: variant bovis BCG, 336 h, time weeks <=2
# [4] = tested on: Mycobacterium tuberculosis; assay: Antimycobacterial activity against Mycobacterium africanum measured up to 2 weeks; format: functional; settings: variant africanum, 336 h, time weeks <=2
smiles,measurement,setting,value
O=C(O)CN1C(=O)/C(=C/c2ccc(Cl)cc2)SC1=S,IC50,[1],7.4 µg/mL
Cc1nc(-c2cnccn2)sc1C(=O)NN1C(=O)CSC1c1ccccc1 (centres undefined),inhibition at 30 µg/mL,[2],62%
O=C(O)CCCCCC1NC(=O)CS1 (centres undefined),MIC,[3],1.3 µM
same,MIC,[4],0.2 µM
